Results: US20220235011A1, “PHTHALAZINONE COMPOUNDS AND USE THEREOF” (ST PHARM CO., LTD., priority 2019, published 2022)
Values belong to the compound of their own block, whether it stands above or below them.

Target: T1, Sirt6 (Homo sapiens, UniProt Q8N6T7)
T1 construct: purchased CycLex CY-1156V2
Experiment: Measurement of Sirt6 Activity (CycLex Sirt6 Deacetylase Fluorometric Assay Kit)
Assay type: biochemical
Conditions: compound at 10 μM, fluorescence relative to the group without compound treatment (positive control group)
Method in brief: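 Recombinant Sirt6 with fluoro-labelled acetyl-lysine peptide, NAD and lysylendopeptidase developer, compound added from 10× stock in PBS; 1 h at room temperature. Fluorescence read at ex 490/em 530 nm; activation expressed as fluorescence ratio relative to enzyme without compound.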

T1 sequence (Q8N6T7 whole entry): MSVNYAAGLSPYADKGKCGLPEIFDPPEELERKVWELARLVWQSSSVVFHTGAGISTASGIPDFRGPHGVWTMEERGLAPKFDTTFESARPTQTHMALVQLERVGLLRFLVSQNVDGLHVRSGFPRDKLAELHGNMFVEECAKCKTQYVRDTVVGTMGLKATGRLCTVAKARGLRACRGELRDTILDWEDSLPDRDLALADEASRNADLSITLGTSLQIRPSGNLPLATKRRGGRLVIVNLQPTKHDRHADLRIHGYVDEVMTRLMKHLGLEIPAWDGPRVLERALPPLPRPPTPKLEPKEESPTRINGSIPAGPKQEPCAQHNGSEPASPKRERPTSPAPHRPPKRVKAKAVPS

Compound: CC(C)(C(=O)O)C1CCCN(c2nn(-c3ccc(F)cc3F)c(=O)c3ccccc23)C1 (centres unmarked) [Example 205, 2-(1-(3-(2,4-Difluorophenyl)-4-oxo-3,4-dihydrophthalazin-1-yl)piperidin-3-yl)-2-methylpropanoic Acid]
Sirt6 Activity (% activity, 10 μM) (10 µM): 105.70 % activity

Compound: CC(C)(C(=O)O)c1cccc(-c2nn(-c3ccc(C4CC4)cc3)c(=O)c3ccccc23)c1 [Example 206, 2-(3-(3-(4-Cyclopropylphenyl)-4-oxo-3,4-dihydrophthalazin-1-yl)phenyl)-2-methylpropanoic Acid]
Sirt6 Activity (% activity, 10 μM): 182.70 % activity

Compound: O=C(O)C1(c2cccc(-c3nn(-c4ccc(F)cc4F)c(=O)c4ccccc34)c2)CCC1 [Example 207, 1-(3-(3-(2,4-Difluorophenyl)-4-oxo-3,4-dihydrophthalazin-1-yl)phenyl)cyclobutane-1-carboxylic Acid]
Sirt6 Activity (% activity, 10 μM): 309.90 % activity

Compound: O=C(O)C1(c2cccc(-c3nn(-c4ccc(F)cc4F)c(=O)c4ccccc34)c2)CCCC1 [Example 208, 1-(3-(3-(2,4-Difluorophenyl)-4-oxo-3,4-dihydrophthalazin-1-yl)phenyl)cyclopentane-1-carboxylic Acid]
Sirt6 Activity (% activity, 10 μM): 117.30 % activity

Compound: CC(C)(C(=O)O)C1CCCN(c2nn(-c3ccc(Cl)cc3)c(=O)c3ccccc23)C1 (centres unmarked) [Example 209, 2-(1-(3-(4-Chlorophenyl)-4-oxo-3,4-dihydrophthalazin-1-yl)piperidin-3-yl)-2-methylpropanoic Acid]
Sirt6 Activity (% activity, 10 μM): 169.10 % activity

Compound: CC(C)(C(=O)O)C1CCCN(c2nn(-c3ccc(F)cc3F)c(=O)c3ccccc23)C1 (centres unmarked) [Example 210-1, 2-(1-(3-(2,4-Difluorophenyl)-4-oxo-3,4-dihydrophthalazin-1-yl)piperidin-3-yl)-2-methylpropanoic Acid]
Sirt6 Activity (% activity, 10 μM) (10 µM): 199.00 % activity

Compound: CC(C)(C(=O)O)C1CCCN(c2nn(-c3ccc(F)cc3F)c(=O)c3ccccc23)C1 (centres unmarked) [Example 210-2, 2-(1-(3-(2,4-Difluorophenyl)-4-oxo-3,4-dihydrophthalazin-1-yl)piperidin-3-yl)-2-methylpropanoic Acid]
Sirt6 Activity (% activity, 10 μM) (10 µM): 100.50 % activity

Compound: COC(=O)C1(C2CCCN(c3nn(-c4ccc(F)cc4F)c(=O)c4ccccc34)C2)CC1 (centres unmarked) [Example 211, Methyl 1-(1-(3-(2,4-difluorophenyl)-4-oxo-3,4-dihydrophthalazin-1-yl)piperidin-3-yl)cyclopropan-1-carboxylate]
Sirt6 Activity (% activity, 10 μM): 170.00 % activity

Compound: O=C(O)C1(C2CCCN(c3nn(-c4ccc(F)cc4F)c(=O)c4ccccc34)C2)CC1 (centres unmarked) [Example 212, 1-(1-(3-(2,4-Difluorophenyl)-4-oxo-3,4-dihydrophthalazin-1-yl)piperidin-3-yl)cyclopropan-1-carboxylic Acid]
Sirt6 Activity (% activity, 10 μM) (10 µM): 170.10 % activity

Compound: Cl.O=c1c2ccccc2c(C2=CCNCC2)nn1-c1ccc(F)cc1F [Example 215, 2-(2,4-Difluorophenyl)-4-(1,2,3,6-tetrahydropyridin-4-yl)phthalazin-1(2H)-one-hydrochloride]
Sirt6 Activity (% activity, 10 μM): 226.60 % activity

Compound: N-(3-(4-Oxo-3-(tetrahydro-2H-pyran-4-yl)-3,4-dihydrophthalazin-1-yl)phenyl)ethanesulfonamide [Example 151]
Sirt6 Activity (% activity, 10 μM): 145.64 % activity

Further lines, results first:

Sirt6 Activity (% activity, 10 μM) (10 µM): 168.10 % activity
Compound: O=C(O)C1(C2CCCN(c3nn(-c4ccc(F)cc4F)c(=O)c4ccccc34)C2)CC1 (centres unmarked) [Example 213-1, 1-(1-(3-(2,4-Difluorophenyl)-4-oxo-3,4-dihydrophthalazin-1-yl)piperidin-3-yl)cyclopropan-1-carboxylic Acid]

Sirt6 Activity (% activity, 10 μM) (10 µM): 102.60 % activity
Compound: O=C(O)C1(C2CCCN(c3nn(-c4ccc(F)cc4F)c(=O)c4ccccc34)C2)CC1 (centres unmarked) [Example 213-2, 1-(1-(3-(2,4-Difluorophenyl)-4-oxo-3,4-dihydrophthalazin-1-yl)piperidin-3-yl)cyclopropan-1-carboxylic Acid]

Sirt6 Activity (% activity, 10 μM): 233.90 % activity
Compound: O=c1c2ccccc2c(-c2cccc(S(=O)(=O)N3CCCC3)c2)nn1-c1ccc(F)cc1F [Example 214, 2-(2,4-Difluorophenyl)-4-(3-(pyrrolidin-1-ylsulfonyl)phenyl)phthalazin-1(2H)-one]

Sirt6 Activity (% activity, 10 μM): 184.80 % activity
Compound: CCN(C)S(=O)(=O)c1cccc(-c2nn(-c3ccc(F)cc3F)c(=O)c3ccccc23)c1 [Example 216, 3-(3-(2,4-Difluorophenyl)-4-oxo-3,4-dihydrophthalazin-1-yl)-N-ethyl-N-methylbenzenesulfonamide]

Sirt6 Activity (% activity, 10 μM): 185.10 % activity
Compound: CCN(CC)S(=O)(=O)c1cccc(-c2nn(-c3ccc(F)cc3F)c(=O)c3ccccc23)c1 [Example 217, 3-(3-(2,4-Difluorophenyl)-4-oxo-3,4-dihydrophthalazin-1-yl)-N,N-diethylbenzenesulfonamide]

Sirt6 Activity (% activity, 10 μM): 176.50 % activity
Compound: CCS(=O)(=O)N1CC=C(c2nn(-c3ccc(F)cc3F)c(=O)c3ccccc23)CC1 [Example 218, 2-(2,4-Difluorophenyl)-4-(1-(ethylsulfonyl)-1,2,3,6-tetrahydropyridin-4-yl)phthalazin-1(2H)-one]

Sirt6 Activity (% activity, 10 μM): 114.60 % activity
Compound: CC(C)(C(=O)O)C1CN(c2nn(-c3ccc(F)cc3F)c(=O)c3ccccc23)CCN1 (centres unmarked) [Example 219, 2-(4-(3-(2,4-Difluorophenyl)-4-oxo-3,4-dihydrophthalazin-1-yl)piperazin-2-yl)-2-methylpropanoic Acid]

Sirt6 Activity (% activity, 10 μM): 125.80 % activity
Compound: CN1CCN(c2nn(-c3ccc(F)cc3F)c(=O)c3ccccc23)CC1C(C)(C)C(=O)O (centres unmarked) [Example 220, 2-(4-(3-(2,4-Difluorophenyl)-4-oxo-3,4-dihydrophthalazin-1-yl)-1-methylpiperazin-2-yl)-2-methylpropanoic Acid]

Sirt6 Activity (% activity, 10 μM): 125.50 % activity
Compound: CC(C)(C(=O)O)C1CN(c2nn(-c3ccc(F)cc3F)c(=O)c3ccccc23)CCO1 (centres unmarked) [Example 221, 2-(4-(3-(2,4-Difluorophenyl)-4-oxo-3,4-dihydrophthalazin-1-yl)morpholin-2-yl)-2-methylpropanoic Acid]
